Where two headings read alike, the source gives them in different places. Where a SMILES comes first, the peptide text is derived from it. Bridges are numbered along the chain shown (N, C = ends). [ ]: non-standard residue; d: D form. The star is where a group is joined. DOTA = O=C(O)CN1CCN(CC(=O)O)CCN(CC(=O)*)CCN(CC(=O)O)CC1; Pro(trans-4-F) = O=C(O)[C@@H]1C[C@@H](F)CN1; Phe(4-CN) = N#Cc1ccc(C[C@H](N)C(=O)O)cc1; Pro(cis-4-F) = O=C(O)[C@@H]1C[C@H](F)CN1; Dopa = N[C@@H](Cc1ccc(O)c(O)c1)C(=O)O; Bta = N[C@@H](Cc1csc2ccccc12)C(=O)O; cisHyp = O=C(O)[C@@H]1C[C@H](O)CN1; mTyr = N[C@@H](Cc1cccc(O)c1)C(=O)O; Hyp = O=C(O)[C@@H]1C[C@@H](O)CN1; tBuAla = CC(C)(C)C[C@H](N)C(=O)O; Pentanoyl(4-Me) = CC(C)CCC(=O)*; Cit = NC(=O)NCCC[C@H](N)C(=O)O; Butoxycarbonyl = CCCCOC(=O)*; NMeNle = CCCC[C@H](NC)C(=O)O; Orn = NCCC[C@H](N)C(=O)O; Dab = NCC[C@H](N)C(=O)O; Nva = CCC[C@H](N)C(=O)O; Hexanoyl = CCCCCC(=O)*; Pentanoyl = CCCCC(=O)*
Columns and labels:
[1] = molecular target: T1, uPAR-expressing HEC-265 human endometrial adenocarcinoma cells (Homo sapiens, UniProt Q03405); assay: Competitive FACS binding assay; conditions: pIC50 category of FACS binding
T1 construct: Cell surface uPAR-expressing HEC-265 human endometrial adenocarcinoma cells; host or cells: HEC-265
T1 sequence (Q03405 23-335): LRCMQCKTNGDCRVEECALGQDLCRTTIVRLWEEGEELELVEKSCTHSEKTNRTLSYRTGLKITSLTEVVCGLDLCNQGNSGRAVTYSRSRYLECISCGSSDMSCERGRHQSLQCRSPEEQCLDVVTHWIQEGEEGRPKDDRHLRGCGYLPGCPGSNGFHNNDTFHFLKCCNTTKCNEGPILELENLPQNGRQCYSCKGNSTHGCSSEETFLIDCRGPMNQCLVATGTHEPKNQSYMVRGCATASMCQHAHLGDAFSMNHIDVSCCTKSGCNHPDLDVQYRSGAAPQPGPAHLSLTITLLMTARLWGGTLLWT
How it was run: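 Competitive displacement of a 10 nM biotinylated peptide from HEC-265 cells (1 h, 4 °C, PBS/1% BSA), detected via APC-streptavidin by flow cytometry. pIC50 from four-parameter logistic fit of median fluorescence versus concentration.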

[2] = molecular target: T2, human uPAR (uPAR-Fc) (Homo sapiens, UniProt Q03405); assay: Surface plasmon resonance (SPR) assay, single cycle kinetics; type: binding; conditions: pKD category for uPAR SPR activity assay, uPAR-Fc on Protein A-Chip, 25°C; for Kd: read-out: pKD CAT (converted)
T2 construct: comprising amino acids Leu23-Arg303 according to UniProt entry Q03405.1; purchased R&D Systems 10378-UK-100
T2 sequence (Q03405 23-303): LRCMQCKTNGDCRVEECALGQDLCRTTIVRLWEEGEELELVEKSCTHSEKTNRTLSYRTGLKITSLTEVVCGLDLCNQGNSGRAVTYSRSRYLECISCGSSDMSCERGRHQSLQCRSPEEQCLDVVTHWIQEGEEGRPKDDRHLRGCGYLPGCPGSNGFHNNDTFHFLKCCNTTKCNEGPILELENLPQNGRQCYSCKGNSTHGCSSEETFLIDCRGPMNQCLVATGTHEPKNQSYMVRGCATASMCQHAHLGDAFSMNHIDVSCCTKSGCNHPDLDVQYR
How it was run: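 uPAR-Fc (Leu23-Arg303 extracellular domains, human IgG1 Fc) captured on Protein A chip to ~2000 RU; single-cycle kinetics at 25°C in HEPES running buffer pH 7.4 with 0.1% DMSO. KD from double-referenced sensorgrams fitted to 1:1 Langmuir model, reported as pKD.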

IC50 [1] [nM]	Kd [2] [nM]	Kd ([2]; single cycle kinetics) [nM]	pIC50 CAT [1]	pKD CAT [2]	Compound
≤ 10	< 1.58	–	–	–	CCCCC(=O)N[C@H]1CSSC[C@@H](C(N)=O)NC(=O)[C@H](CCC)NC(=O)[C@H]([C@@H](C)CC)NC(=O)[C@@H]2C[C@@H](O)CN2C(=O)[C@@H]2CCCN2C(=O)[C@H](Cc2csc3ccccc23)NC(=O)[C@H](Cc2ccc(O)cc2)NC(=O)[C@H](CCC(N)=O)NC(=O)[C@H](CCCNC(=N)N)NC1=O [UPAR-273, Pent-[Cys-Arg-Gln-Tyr-Bta-Pro-Hyp-Ile-Nva-Cys]-NH2] (Pentanoyl-CRQY[Bta]P[Hyp]I[Nva]C-NH2; disulfide 1-10)
12.6 to 31.6	–	1.58 to 10	–	–	CC[C@H](C)[C@@H]1NC(=O)[C@@H](C)NC(=O)[C@@H]2CCCN2C(=O)[C@H](Cc2ccccc2)NC(=O)[C@H](Cc2ccc(O)cc2)NC(=O)[C@H](CCC(N)=O)NC(=O)[C@H](CCCNC(N)=O)NC(=O)[C@@H](NC(=O)CCC(C)C)CSSC[C@@H](C(N)=O)NC(=O)[C@H](C)NC1=O [UPAR-402, iHex-[Cys-Cit-Gln-Tyr-Phe-Pro-ala-Ile-Ala-Cys]-NH2] ({Pentanoyl(4-Me)}-C[Cit]QYFP[dA]IAC-NH2; disulfide 1-10)
12.6 to 31.6	10 to 100	–	–	–	CCCCC(=O)N[C@H]1CSSC[C@@H](C(N)=O)NC(=O)[C@H](CCC)NC(=O)[C@H]([C@@H](C)CC)NC(=O)[C@@H]2C[C@@H](O)CN2C(=O)[C@@H]2CCCN2C(=O)[C@H](Cc2ccccc2)NC(=O)[C@H](Cc2ccc(O)cc2)NC(=O)[C@H](CCCCNC(=O)CN2CCN(CC(=O)O)CCN(CC(=O)O)CCN(CC(=O)O)CC2)NC(=O)[C@H](CCCNC(=O)CCCC(=O)NCCOCCOCCOCCOCCC(=O)NC(COCCC(=O)NCCOCCOCCOCCOCCOCCOCCOCCOCCOCCOCCOCCOC)(COCCC(=O)NCCOCCOCCOCCOCCOCCOCCOCCOCCOCCOCCOCCOC)COCCC(=O)NCCOCCOCCOCCOCCOCCOCCOCCOCCOCCOCCOCCOC)NC1=O [UPAR-247, Pent-[Cys-Orn(TrisPEG)-Lys(DOTA)-Tyr-Phe-Pro-Hyp-Ile-Nva-Cys]-NH2]
–	–	–	A (pIC50 values ≥8.0)	A (pKD values ≥ 8.8)	Pent-[Cys-Cit-Lys(LaDOTA)-Ppa-Phe-Pro-Hyp-Ile-Nva-Cys]-NH2 [UPAR-296]
39.8 to 100	–	10 to 100	–	–	CC[C@H](C)[C@@H]1NC(=O)[C@@H](C)NC(=O)[C@@H]2CCCN2C(=O)[C@H](Cc2ccccc2)NC(=O)[C@H](Cc2ccc(O)cc2)NC(=O)[C@H](CCC(N)=O)NC(=O)[C@H](CCCNC(N)=O)NC(=O)[C@@H](NC(=O)CCC(C)C)CSSC[C@@H](C(N)=O)NC(=O)[C@H](CC(C)(C)C)NC1=O [UPAR-477, iHex-[Cys-Cit-Gln-Tyr-Phe-Pro-ala-Ile-Npg-Cys]-NH2] ({Pentanoyl(4-Me)}-C[Cit]QYFP[dA]I[tBuAla]C-NH2; disulfide 1-10)
≥ 126	< 1.58	–	–	–	CCCCC(=O)N[C@H]1CSSC[C@@H](C(N)=O)NC(=O)[C@H](CCC)NC(=O)[C@H]([C@@H](C)CC)NC(=O)[C@@H]2C[C@@H](O)CN2C(=O)[C@H](CCCC)N(C)C(=O)[C@H](Cc2ccccc2)NC(=O)[C@H](Cc2ccc(O)cc2)NC(=O)[C@H](CCC(N)=O)NC(=O)[C@H](CCCNC(=N)N)NC1=O [UPAR-337, Pent-[Cys-Arg-Gln-Tyr-Phe-Nmb-Hyp-Ile-Nva-Cys]-NH2] (Pentanoyl-CRQYF[NMeNle][Hyp]I[Nva]C-NH2; disulfide 1-10)
12.6 to 31.6	–	10 to 100	–	–	CC[C@H](C)[C@@H]1NC(=O)[C@@H](C)NC(=O)[C@@H]2CCCN2C(=O)[C@H](Cc2ccccc2)NC(=O)[C@H](Cc2ccc(O)cc2)NC(=O)[C@H](CCCCNC(=O)CN2CCN(CC(=O)O)CCN(CC(=O)O)CCN(CC(=O)O)CC2)NC(=O)[C@H](CC(=O)O)NC(=O)[C@@H](NC(=O)[C@H](CC(C)C)NC(=O)[C@H](CC(=O)O)NC(C)=O)CSSC[C@@H](C(N)=O)NC(=O)[C@H](CC(C)C)NC1=O [UPAR-432, Ac-Asp-Leu-[Cys-Asp-Lys(DOTA)-Tyr-Phe-Pro-ala-Ile-Leu-Cys]-NH2] (Ac-DLCDK(DOTA)YFP[dA]ILC-NH2; disulfide 3-12)
≤ 10	–	< 1.58	–	–	CCCCCC(=O)N[C@@H](CC(=O)O)C(=O)N[C@@H](CC(C)C)C(=O)N[C@H]1CSSC[C@@H](C(N)=O)NC(=O)[C@H](CC(C)C)NC(=O)[C@H]([C@@H](C)CC)NC(=O)[C@H](C)NC(=O)[C@@H]2CCCN2C(=O)[C@H](Cc2ccccc2)NC(=O)[C@H](Cc2ccc(O)cc2)NC(=O)[C@H](CCSC)NC(=O)[C@H](CCCNC(=N)N)NC1=O [UPAR-363, Hex-Asp-Leu-[Cys-Arg-Met-Tyr-Phe-Pro-Ala-Ile-Leu-Cys]-NH2] (Hexanoyl-DLCRMYFPAILC-NH2; disulfide 3-12)
≤ 10	< 1.58	–	–	–	CCCCC(=O)N[C@H]1CSSC[C@@H](C(N)=O)NC(=O)[C@H](CCC)NC(=O)[C@H]([C@@H](C)CC)NC(=O)[C@@H]2C[C@H](O)CN2C(=O)[C@@H]2CCCN2C(=O)[C@H](Cc2ccccc2)NC(=O)[C@H](Cc2ccc(O)cc2)NC(=O)[C@H](CCCCNC(=O)CN2CCN(CC(=O)O)CCN(CC(=O)O)CCN(CC(=O)O)CC2)NC(=O)[C@H](CCCNC(N)=O)NC1=O [UPAR-214, Pent-[Cys-Cit-Lys(DOTA)-Tyr-Phe-Pro-Chy-Ile-Nva-Cys]-NH2] (Pentanoyl-C[Cit]K(DOTA)YFP[cisHyp]I[Nva]C-NH2; disulfide 1-10)
≤ 10	< 1.58	–	–	–	CCCCC(=O)N[C@H]1CSSC[C@@H](C(N)=O)NC(=O)[C@H](CCC)NC(=O)[C@H]([C@@H](C)CC)NC(=O)[C@@H]2C[C@@H](O)CN2C(=O)[C@@H]2CCCN2C(=O)[C@H](Cc2ccccc2)NC(=O)[C@H](Cc2c[nH]cn2)NC(=O)[C@H](CCCCNC(=O)CN2CCN(CC(=O)O)CCN(CC(=O)O)CCN(CC(=O)O)CC2)NC(=O)[C@H](CCCNC(N)=O)NC1=O [UPAR-324, Pent-[Cys-Cit-Lys(DOTA)-His-Phe-Pro-Hyp-Ile-Nva-Cys]-NH2] (Pentanoyl-C[Cit]K(DOTA)HFP[Hyp]I[Nva]C-NH2; disulfide 1-10)

Compound	IC50 [1] [nM]	Kd [2] [nM]	Kd ([2]; single cycle kinetics) [nM]	pIC50 CAT [1]	pKD CAT [2]
CCCCOC(=O)N[C@H]1CSSC[C@@H](C(N)=O)NC(=O)[C@H](CCC)NC(=O)[C@H]([C@@H](C)CC)NC(=O)[C@@H]2C[C@@H](F)CN2C(=O)[C@@H]2CCCN2C(=O)[C@H](Cc2ccccc2)NC(=O)[C@H](Cc2ccc(O)cc2)NC(=O)[C@H](CCCCNC(=O)CN2CCN(CC(=O)O)CCN(CC(=O)O)CCN(CC(=O)O)CC2)NC(=O)[C@H]([C@@H](C)O)NC1=O [UPAR-289, Butoc-[Cys-Thr-Lys(DOTA)-Tyr-Phe-Pro-4Tfp-Ile-Nva-Cys]-NH2] (Butoxycarbonyl-CTK(DOTA)YFP[Pro(trans-4-F)]I[Nva]C-NH2; disulfide 1-10)	≤ 10	< 1.58	–	–	–
CCCCOC(=O)N[C@H]1CSSC[C@@H](C(N)=O)NC(=O)[C@H](CCC)NC(=O)[C@H]([C@@H](C)CC)NC(=O)[C@@H]2C[C@@H](O)CN2C(=O)[C@@H]2C[C@@H](O)CN2C(=O)[C@H](Cc2ccccc2)NC(=O)[C@H](Cc2ccc(O)c(O)c2)NC(=O)[C@H](CCCCNC(=O)CN2CCN(CC(=O)O)CCN(CC(=O)O)CCN(CC(=O)O)CC2)NC(=O)[C@H]([C@@H](C)O)NC1=O [UPAR-284, Butoc-[Cys-Thr-Lys(DOTA)-Dopa-Phe-Hyp-Hyp-Ile-Nva-Cys]-NH2] (Butoxycarbonyl-CTK(DOTA)[Dopa]F[Hyp][Hyp]I[Nva]C-NH2; disulfide 1-10)	≤ 10	< 1.58	–	–	–
CCCCOC(=O)N[C@H]1CSSC[C@@H](C(N)=O)NC(=O)[C@H](CCC)NC(=O)[C@H]([C@@H](C)CC)NC(=O)[C@@H]2C[C@@H](O)CN2C(=O)[C@@H]2C[C@H](F)CN2C(=O)[C@H](Cc2ccc(C#N)cc2)NC(=O)[C@H](Cc2ccc(O)cc2)NC(=O)[C@H](CCCCNC(=O)CN2CCN(CC(=O)O)CCN(CC(=O)O)CCN(CC(=O)O)CC2)NC(=O)[C@H]([C@@H](C)O)NC1=O [UPAR-378, Butoc-[Cys-Thr-Lys(DOTA)-Tyr-Pnf-4Cfp-Hyp-Ile-Nva-Cys]-NH2] (Butoxycarbonyl-CTK(DOTA)Y[Phe(4-CN)][Pro(cis-4-F)][Hyp]I[Nva]C-NH2; disulfide 1-10)	≤ 10	–	< 1.58	–	–
CCCCOC(=O)N[C@H]1CSSC[C@@H](C(N)=O)NC(=O)[C@H](CCC)NC(=O)[C@H]([C@@H](C)CC)NC(=O)[C@@H]2C[C@@H](O)CN2C(=O)[C@@H]2C[C@H](F)CN2C(=O)[C@H](Cc2ccccc2)NC(=O)[C@H](Cc2cccc(O)c2)NC(=O)[C@H](CCCNC(=O)CN2CCN(CC(=O)O)CCN(CC(=O)O)CCN(CC(=O)O)CC2)NC(=O)[C@H]([C@@H](C)O)NC1=O [UPAR-415, Butoc-[Cys-Thr-Orn(DOTA)-My-Phe-4Cfp-Hyp-Ile-Nva-Cys]-NH2] (Butoxycarbonyl-CT[Orn](DOTA)[mTyr]F[Pro(cis-4-F)][Hyp]I[Nva]C-NH2; disulfide 1-10)	≤ 10	–	< 1.58	–	–
CCCCOC(=O)N[C@H]1CSSC[C@@H](C(N)=O)NC(=O)[C@H](CCC)NC(=O)[C@H]([C@@H](C)CC)NC(=O)[C@@H]2C[C@@H](O)CN2C(=O)[C@@H]2C[C@H](F)CN2C(=O)[C@H](Cc2ccccc2)NC(=O)[C@H](Cc2ccc(O)cc2)NC(=O)[C@H](CCNC(=O)CN2CCN(CC(=O)O)CCN(CC(=O)O)CCN(CC(=O)O)CC2)NC(=O)[C@H]([C@@H](C)O)NC1=O [UPAR-228, Butoc-[Cys-Thr-Dab(DOTA)-Tyr-Phe-4Cfp-Hyp-Ile-Nva-Cys]-NH2] (Butoxycarbonyl-CT[Dab](DOTA)YF[Pro(cis-4-F)][Hyp]I[Nva]C-NH2; disulfide 1-10)	≤ 10	< 1.58	–	–	–

— patent publication EP4610269A1, “UROKINASE PLASMINOGEN ACTIVATOR SURFACE RECEPTOR (UPAR) LIGANDS FOR DIAGNOSTIC OR THERAPEUTIC USE” (3B Pharmaceuticals GmbH, priority 2024, dated 2025)
